Test results reported in publication PMC4028821 (Chemical communications (Cambridge, England), 2014).

Target: PARP1 (Homo sapiens, UniProt P09874)
Assay: enzyme inhibition assay with recombinant human PARP1
Assay type: biochemical

Sequence of PARP1 (P09874 2-1014): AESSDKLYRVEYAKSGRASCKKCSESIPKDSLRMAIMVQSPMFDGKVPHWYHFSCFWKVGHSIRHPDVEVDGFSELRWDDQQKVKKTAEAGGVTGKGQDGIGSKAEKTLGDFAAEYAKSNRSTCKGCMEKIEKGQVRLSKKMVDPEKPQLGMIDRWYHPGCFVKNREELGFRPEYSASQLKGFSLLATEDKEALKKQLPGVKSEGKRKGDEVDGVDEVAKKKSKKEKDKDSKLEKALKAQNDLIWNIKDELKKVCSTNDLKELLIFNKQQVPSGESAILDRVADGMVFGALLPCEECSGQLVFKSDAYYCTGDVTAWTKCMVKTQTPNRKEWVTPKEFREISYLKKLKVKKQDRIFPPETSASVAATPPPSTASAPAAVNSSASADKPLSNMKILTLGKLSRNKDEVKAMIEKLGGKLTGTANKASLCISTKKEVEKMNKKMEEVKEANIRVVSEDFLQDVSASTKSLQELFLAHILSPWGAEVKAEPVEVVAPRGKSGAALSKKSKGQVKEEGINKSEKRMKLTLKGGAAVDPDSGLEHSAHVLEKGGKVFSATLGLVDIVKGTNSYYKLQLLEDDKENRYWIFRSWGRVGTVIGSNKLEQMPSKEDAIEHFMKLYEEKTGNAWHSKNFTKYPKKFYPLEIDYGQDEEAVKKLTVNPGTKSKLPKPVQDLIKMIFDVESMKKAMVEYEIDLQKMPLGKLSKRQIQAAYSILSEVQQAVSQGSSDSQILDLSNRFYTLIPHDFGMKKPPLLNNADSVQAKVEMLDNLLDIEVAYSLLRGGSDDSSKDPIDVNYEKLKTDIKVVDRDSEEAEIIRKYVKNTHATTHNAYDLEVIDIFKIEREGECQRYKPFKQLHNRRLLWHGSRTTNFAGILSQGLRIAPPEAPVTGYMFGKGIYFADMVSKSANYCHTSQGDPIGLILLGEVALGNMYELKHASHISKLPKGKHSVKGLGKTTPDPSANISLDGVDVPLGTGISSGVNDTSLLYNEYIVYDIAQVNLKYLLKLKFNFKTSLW

Substance	IC50
Olaparib-SiR-Me [compound 6]	0.0992 µM
Olaparib-SiR-COOH [compound 10]	0.1 µM
